Our source for the glass transition temperature values is the PolyMetriX glass transition set.

In turn, `*/C(=C(/*)c1ccc(CCCC)cc1)c1ccccc1` (repeat unit) yielded a glass transition temperature of 200.00 °C.

With `*C(=O)Nc1ccc(Oc2ccc(C3(c4ccc(Oc5ccc(NC(=O)c6ccc7c(c6)C(=O)N(c6ccc(Oc8ccc(Oc9ccc(N%10C(=O)c%11ccc(*)cc%11C%10=O)cc9)c(C)c8)cc6)C7=O)cc5)cc4)NC(=O)c4ccccc43)cc2)cc1` (repeat unit), the glass transition temperature came to 293.00 °C.

For the compound `*C(=O)Nc1ccc(Oc2cccc(Oc3ccc(NC(=O)c4ccc5c(c4)C(=O)N(c4ccc(Oc6cccc(Oc7ccc(N8C(=O)c9ccc(*)cc9C8=O)cc7)c6C#N)cc4)C5=O)cc3)c2)cc1` (repeat unit), the glass transition temperature was 217.00 °C.

Compound `*C(=O)Nc1cccc(Oc2cccc(Oc3cccc(Oc4cccc(Oc5cccc(NC(=O)c6ccc7c(c6)C(=O)N(c6ccc(Oc8cccc(Oc9ccc(N%10C(=O)c%11ccc(*)cc%11C%10=O)cc9)c8C#N)cc6)C7=O)c5)c4C#N)c3)c2C#N)c1` (repeat unit) displayed a glass transition temperature of 199.00 °C.

Consider `*C(=O)c1ccc2c(c1)C(=O)N(c1ccc(Oc3cc(C(C)(C)C)c(Oc4ccc(N5C(=O)c6ccc(*)cc6C5=O)cc4)cc3C(C)(C)C)cc1)C2=O` (repeat unit), for which the glass transition temperature was determined as 288.00 °C.

Consider `*C(=O)c1ccc2c(c1)C(=O)N(c1ccc(Oc3cccc(Oc4ccc(N5C(=O)c6ccc(*)cc6C5=O)cc4)c3C#N)cc1)C2=O` (repeat unit), for which the glass transition temperature turned out to be 245.00 °C.

Consider `*CCCOCCCCOCCCN1C(=O)c2ccc(C(=O)Oc3ccc(OC(=O)c4ccc5c(c4)C(=O)N(*)C5=O)cc3)cc2C1=O` (repeat unit), for which the glass transition temperature was 56.00 °C.

Take `*Oc1ccc(C(=O)c2ccc(*)cc2)cc1` (repeat unit): the glass transition temperature came out at 154.00 °C.

Regarding `*Oc1ccc(C(=O)c2ccc(Oc3ccc4c(=O)n5c6cc(-c7ccc8c(c7)nc7c9ccc(*)c%10cccc(c(=O)n87)c%109)ccc6nc5c5cccc3c45)cc2)cc1` (repeat unit), the glass transition temperature was found to be 389.00 °C.

`*Oc1ccc(C2(c3ccc(OC(*)=O)cc3)CC3CC2C2C4CCC(C4)C32)cc1` (repeat unit): the glass transition temperature worked out at 267.50 °C.

`*Oc1ccc(C2(c3ccc(OC(*)=O)cc3)CC3CC2C2CCCC32)cc1` (repeat unit) gave a glass transition temperature of 251.50 °C.

`*Oc1ccc(C2(c3ccc(OC(=O)c4ccc(C(*)=O)cc4)cc3)CC3CC2C2CCCC32)cc1` (repeat unit) yielded a glass transition temperature of 322.00 °C.

For `*Oc1ccc(C2(c3ccc(OC(=O)c4ccc(C(*)=O)cc4)cc3)CCc3ccccc32)cc1` (repeat unit), the glass transition temperature is 312.00 °C.

The compound `*Oc1ccc(C2(c3ccc(OC(=O)c4ccc(C(*)=O)cc4)cc3)c3ccccc3-c3ccccc32)cc1` (repeat unit) displayed a glass transition temperature of 285.00 °C.

Compound `*Oc1ccc(C2(c3ccc(OC(=O)c4ccc(C(*)=O)cc4)cc3)c3ccccc3Cc3ccccc32)cc1` (repeat unit) yielded a glass transition temperature of 342.00 °C.

With `*Oc1ccc(C2(c3ccc(OC(=O)c4cccc(C(*)=O)c4)cc3)c3ccccc3-c3ccccc32)cc1` (repeat unit), the glass transition temperature came out at 269.50 °C.

For `*Oc1ccc(C2(c3ccc(OC4(F)C(*)(F)C(F)(F)C4(F)F)cc3)c3ccccc3-c3ccccc32)cc1` (repeat unit), the glass transition temperature worked out at 228.00 °C.

In turn, `*Oc1ccc(C2(c3ccc(Oc4ccc5c(=O)n6c7cc(Oc8ccc9c(c8)nc8c%10ccc(*)c%11cccc(c(=O)n98)c%11%10)ccc7nc6c6cccc4c56)cc3)c3ccccc3-c3ccccc32)cc1` (repeat unit) gave a glass transition temperature of 396.00 °C.

Turning to `*Oc1ccc(C2(c3ccc(Oc4nc(*)nc(OC)n4)cc3)CCCCC2)cc1` (repeat unit), the glass transition temperature amounted to 200.00 °C.

`*Oc1ccc(Cc2ccc(OC(*)=O)cc2)cc1` (repeat unit) gave a glass transition temperature of 133.50 °C.

Turning to `*Oc1ccc(Cc2ccc(OC(=O)c3cccc(C(*)=O)c3)cc2)cc1` (repeat unit), the glass transition temperature worked out at 150.00 °C.

On to `*Oc1ccc(OC(=O)Oc2ccc(C(*)=O)cc2)cc1` (repeat unit), for which the glass transition temperature came to 74.00 °C.

On to `*Oc1ccc(OC(=O)c2cc(OCCCCCCCCCOCC3CCCN3c3ccc([N+](=O)[O-])cc3)c(C(*)=O)cc2OCCCCCCCCCOCC2CCCN2c2ccc([N+](=O)[O-])cc2)cc1` (repeat unit), for which the glass transition temperature came to 34.00 °C.

As to `*Oc1ccc(OC(=O)c2cc(OCCCCCCCCOCC3CCCN3c3ccc([N+](=O)[O-])cc3)c(C(*)=O)cc2OCCCCCCCCOCC2CCCN2c2ccc([N+](=O)[O-])cc2)cc1` (repeat unit), the glass transition temperature stood at 41.00 °C.

In turn, `*Oc1ccc(OC(=O)c2cc(OCCCCCCCOCC3CCCN3c3ccc([N+](=O)[O-])cc3)c(C(*)=O)cc2OCCCCCCCOCC2CCCN2c2ccc([N+](=O)[O-])cc2)cc1` (repeat unit) gave a glass transition temperature of 50.00 °C.

Consider `*Oc1ccc(OC(=O)c2ccc(C(*)=O)cc2)cc1` (repeat unit), for which the glass transition temperature worked out at 267.00 °C.

Compound `*Oc1ccc(OC(=O)c2ccc(C(*)=O)cc2)cc1C1CCCCC1` (repeat unit) came in with a glass transition temperature of 206.00 °C.

In the case of `*Oc1ccc(OC(=O)c2ccc(C(*)=O)cc2Oc2ccc(C3CCCCC3)cc2)cc1` (repeat unit), the glass transition temperature amounted to 113.00 °C.

The compound `*Oc1ccc(OC(=O)c2ccc(C(*)=O)cc2Oc2ccc(F)cc2)cc1` (repeat unit) registered a glass transition temperature of 106.00 °C.

In turn, `*Oc1ccc(OC(=O)c2ccc(OC(=O)c3ccc(C(=O)Oc4ccc(C(*)=O)cc4)cc3)cc2)cc1` (repeat unit) yielded a glass transition temperature of 283.00 °C.

Turning to `*Oc1ccc(OC(=O)c2ccc(OCCCCCCCCCCCCOc3ccc(C(*)=O)cc3)cc2)cc1/C=C/c1ccncc1` (repeat unit), the glass transition temperature amounted to 94.30 °C.

For the compound `*Oc1ccc(OC(=O)c2ccc(OCCCCCCCCCCOc3ccc(C(*)=O)cc3)cc2)cc1S(=O)(=O)c1ccccc1` (repeat unit), the glass transition temperature is 88.00 °C.

`*Oc1ccc(OC(=O)c2ccc(Oc3ccc(C(*)=O)cc3)cc2)c2ccccc12` (repeat unit): the glass transition temperature came to 166.00 °C.

In turn, `*Oc1ccc(Oc2ccc(C(=O)c3ccc(Oc4ccc(Oc5cccc(*)n5)cc4)cc3)cc2)cc1` (repeat unit) yielded a glass transition temperature of 124.00 °C.

The compound `*Oc1ccc(Oc2ccc(NC(=O)c3ccc(Oc4ccc(Oc5ccc(C(=O)Nc6ccc(*)cc6)cc5)cc4C)cc3)cc2)cc1C` (repeat unit) came in with a glass transition temperature of 218.50 °C.

In turn, `*Oc1ccc(Oc2ccc(Oc3cccc(C(=O)Oc4ccc(OC(=O)c5cccc(*)c5)cc4)c3)cc2)cc1` (repeat unit) gave a glass transition temperature of 101.00 °C.

`*Oc1ccc(S(=O)(=O)c2ccc(Oc3ccc(C(=O)c4ccc(*)cc4)cc3)cc2)cc1` (repeat unit) registered a glass transition temperature of 205.00 °C.

On to `*c1ccc(OC(=O)c2cc(Cl)cc(C(=O)Oc3ccc(C4(*)OC(=O)c5ccccc54)cc3)c2)cc1` (repeat unit), for which the glass transition temperature was 313.00 °C.

Compound `*c1ccc(OC(=O)c2ccc(C(=O)Oc3ccc(C4(*)OC(=O)c5ccccc54)cc3)cc2)cc1` (repeat unit) came in with a glass transition temperature of 279.00 °C.

For the compound `*c1ccc(OC(=O)c2cccc(C(=O)Oc3ccc(C4(*)OC(=O)c5ccccc54)cc3)c2)cc1` (repeat unit), the glass transition temperature worked out at 282.50 °C.

`*c1ccc(Oc2ccc(-c3ccc(Oc4ccc(N5C(=O)c6ccc(Oc7c(C)cc(C(C)(C)c8cc(C)c(Oc9ccc%10c(c9)C(=O)N(*)C%10=O)c(C)c8)cc7C)cc6C5=O)cc4)cc3C)c(C)c2)cc1` (repeat unit) showed a glass transition temperature of 257.00 °C.

As for `*c1ccc(Oc2ccc(-c3ccc(Oc4ccc(N5C(=O)c6ccc(Oc7ccc(C8(c9ccc(Oc%10ccc%11c(c%10)C(=O)N(*)C%11=O)cc9)CCC(C(C)(C)C)CC8)cc7)cc6C5=O)cc4)cc3C)c(C)c2)cc1` (repeat unit), the glass transition temperature came to 236.00 °C.

In turn, `*c1ccc(Oc2ccc(C3(c4ccc(Oc5ccc(N6C(=O)c7ccc(Oc8ccc(C9(c%10ccc(Oc%11ccc%12c(c%11)C(=O)N(*)C%12=O)cc%10)CCC(c%10ccccc%10)CC9)cc8)cc7C6=O)cc5)cc4)CC4CCC3C4)cc2)cc1` (repeat unit) yielded a glass transition temperature of 245.00 °C.

In turn, `*c1ccc(Oc2ccc(C3(c4ccc(Oc5ccc(N6C(=O)c7ccc(Oc8ccc(C9(c%10ccc(Oc%11ccc%12c(c%11)C(=O)N(*)C%12=O)cc%10)CCCCCCCCCCC9)cc8)cc7C6=O)cc5)cc4)CC4CCC3C4)cc2)cc1` (repeat unit) came in with a glass transition temperature of 259.00 °C.

`*c1ccc(Oc2ccc(N3C(=O)c4ccc(Oc5ccc(C6(c7ccc(Oc8ccc9c(c8)C(=O)N(*)C9=O)cc7)CCC(c7ccccc7)CC6)cc5)cc4C3=O)cc2)cc1` (repeat unit) showed a glass transition temperature of 236.00 °C.

`*c1ccc(Oc2ccc(N3C(=O)c4ccc(Oc5ccc(C6(c7ccc(Oc8ccc9c(c8)C(=O)N(*)C9=O)cc7)CCCCCCCCCCC6)cc5)cc4C3=O)cc2)cc1` (repeat unit) gave a glass transition temperature of 230.00 °C.

As for `*c1ccc(Oc2ccc(Oc3ccc(N4C(=O)c5ccc(-c6ccc7c(c6)C(=O)N(*)C7=O)cc5C4=O)cc3)c(C(C)(C)C)c2)cc1` (repeat unit), the glass transition temperature was 274.00 °C.

`*c1ccc(Oc2ccc(Oc3ccc(N4C(=O)c5ccc(Oc6ccc(C7(c8ccc(Oc9ccc%10c(c9)C(=O)N(*)C%10=O)cc8)CCC(c8ccccc8)CC7)cc6)cc5C4=O)cc3)c(C(C)(C)C)c2)cc1` (repeat unit) showed a glass transition temperature of 236.00 °C.

`*c1ccc(Oc2ccc3c(c2)C(=O)N(*)C3=O)cc1` (repeat unit) registered a glass transition temperature of 266.00 °C.

The compound `*c1ccc2c(c1)C(=O)N(c1ccc(Oc3cccc(Oc4ccc(N5C(=O)c6ccc(C(*)(C(F)(F)F)C(F)(F)F)cc6C5=O)cc4)c3C#N)cc1)C2=O` (repeat unit) had a glass transition temperature of 280.00 °C.

Consider `*c1cccc(N2C(=O)c3ccc(Oc4ccc(C(=O)c5ccc(Oc6ccc7c(c6)C(=O)N(*)C7=O)cc5)cc4)cc3C2=O)c1` (repeat unit), for which the glass transition temperature was found to be 239.00 °C.

For the compound `*c1nnc(-c2ccc(Oc3ccc(/C=C/c4ccc(Oc5ccc(*)c6ccccc56)cc4)c4ccccc34)c3ccccc23)o1` (repeat unit), the glass transition temperature stood at 241.00 °C.
